Data set [1] concerns the target T1, Programmed cell death protein 1/Programmed cell death 1 ligand 1 (Homo sapiens, UniProt Q9NZQ7). As to the kind of experiment: Inhibition of human Fc-tagged PD1 N-terminal domain (Leu25 to Gln167 residues) expressed in HEK293 cells/human His-tagged PDL1 (Phe19 to Arg238 residues) expressed in HEK293 cells protein-protein interaction after 40 mins by APC-labeled anti-His antibody/Eu-labeled anti-human IgG based HTRF assay. Format: cell-based.

The next data set concerns A549. The data set is described as follows: Cytotoxicity against human A549 cells assessed as reduction in cell viability measured after 48 hrs by MTT assay. The format is functional, cell-based. To be noted: A549, 48 h. For orientation: Formazan colour is commonly taken as a measure of viable cells.
The next data set relates to B16-F10. The data set is described as follows: Cytotoxicity against mouse B16/F10 cells assessed as reduction in cell viability measured after 48 hrs by MTT assay. The format is functional, cell-based. The conditions noted are these: B16-F10, 48 h.
Data set [2] has as its target T1, Programmed cell death protein 1/Programmed cell death 1 ligand 1. As to the kind of experiment: Inhibition of human PD1/PDL1 protein-protein interaction by HTRF assay. The format is protein-complex assay. (Time-resolved FRET reads energy transfer from a long-lived donor to a nearby acceptor.)
The next data set deals with MCF7. As to the kind of experiment: Cytotoxicity against human MCF7 cells assessed as reduction in cell viability measured after 48 hrs by MTT assay. Format: functional, cell-based. The conditions noted are these: MCF7, 48 h.
The target of data set [3] is T1, Programmed cell death protein 1/Programmed cell death 1 ligand 1. The data set is described as follows: Inhibition of human C-terminal Ig-Fc-tagged PD1 (Leu25 to Gln167 residues) expressed in HEK293 cells/human C-terminal epitope-His-tagged PDL1 (Phe19 to Arg238 residues) expressed in HEK293 cells protein-protein interaction preincubated for 15 mins with PDL1 followed by PD1 addition and measured after 15 mins by APC-labeled anti-His antibody/Eu-labeled anti-human IgG based HTRF assay. Format: cell-based.

A short description of data set [4]: Solubility of the compound in water. The format is physicochemical.

≈ marks a conversion by molar mass, not a printed value.

Among the data in ChEMBL document CHEMBL4619786, “Discovery of Novel Resorcinol Dibenzyl Ethers Targeting the Programmed Cell Death-1/Programmed Cell Death-Ligand 1 Interaction as Potential Anticancer Agents” (J Med Chem, 2020) are IC50 and solubility values, retold here.

By IC50 is commonly meant the concentration that inhibits the measured activity by half. A word on the solubility: it is the concentration that dissolves in the medium under given conditions. Lower therefore signals little dissolved substance.

T1 sequence (Q15116 whole entry, the tested form may be a part): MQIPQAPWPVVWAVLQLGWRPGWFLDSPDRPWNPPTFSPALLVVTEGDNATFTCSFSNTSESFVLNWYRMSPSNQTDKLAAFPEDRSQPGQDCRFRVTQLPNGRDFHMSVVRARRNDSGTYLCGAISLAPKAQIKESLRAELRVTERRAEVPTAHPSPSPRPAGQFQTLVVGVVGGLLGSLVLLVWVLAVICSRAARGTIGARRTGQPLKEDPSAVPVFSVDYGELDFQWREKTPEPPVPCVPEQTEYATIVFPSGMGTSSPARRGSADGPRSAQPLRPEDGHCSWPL
T1 sequence (Q9NZQ7 whole entry, the tested form may be a part): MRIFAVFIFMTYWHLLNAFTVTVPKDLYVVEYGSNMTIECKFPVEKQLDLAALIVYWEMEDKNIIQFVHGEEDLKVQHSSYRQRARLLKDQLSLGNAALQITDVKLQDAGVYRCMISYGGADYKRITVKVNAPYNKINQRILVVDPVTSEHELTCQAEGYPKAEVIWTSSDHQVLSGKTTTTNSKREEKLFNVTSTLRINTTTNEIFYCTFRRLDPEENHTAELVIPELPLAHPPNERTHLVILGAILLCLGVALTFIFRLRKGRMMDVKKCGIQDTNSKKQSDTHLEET

Turning to `Cc1c(Nc2cccc3cc(CNCCO)cnc23)cccc1-c1ccccc1`, in data set [1], the IC50 was under 0.01 µM.
Consider `Cc1c(COc2cc(OCc3cccc(C#N)c3)c(CN[C@H](CO)C(=O)O)cc2Cl)cccc1-c1ccccc1`, for which the IC50 was over 10 µM in the data set on A549, over 10000 nM with B16-F10, 8 nM in data set [2] and over 10 µM in the data set on MCF7.
As for `Cc1c(COc2cc(OCc3cccc(C#N)c3)c(CN3CCC(O)C3)cc2Cl)cccc1-c1ccc2c(c1)OCCO2` (centres undefined), the IC50 in the data set on A549 turned out to be 4.2 µM; in the data set with B16-F10 it was 2300 nM; in data set [2], 12.9 nM; with MCF7, 4.4 µM.
For the compound `Cc1c(COc2ccc3cc(CNCCO)ccc3c2)cccc1-c1ccccc1`, the figures for the IC50 in data set [2] and in data set [1] were over 10000 nM and over 10 µM, respectively.
As for `COc1cc(NC(=O)c2cccc(-c3ccccc3)c2C)ccc1CN1CCN(C(C)=O)CC1`, the IC50 in data set [1] was over 10 µM.
Consider `Cc1c(COc2cc(OCc3cccc(C#N)c3)c(CNC(C)(C)C(=O)O)cc2Cl)cccc1-c1ccncc1`, for which the IC50 in data set [2] and in data set [3] was over 100 nM in each case.
For `Cc1c(COc2cc(OCc3ccnc(C#N)c3)c(CNC(C)(C)C(=O)O)cc2Cl)cccc1-c1ccc2ocnc2c1`, the IC50 in data set [3] worked out at 10 nM.
On to `Cc1c(COc2cc(OCc3cccc(C#N)c3)c(CN3CC[C@H](C(=O)O)C3)cc2Cl)cccc1-c1ccc2c(c1)OCCO2`, for which the IC50 in the data set with A549 was over 10 µM; with B16-F10 it was 10800 nM; in data set [2], 7.9 nM; in data set [3] it was 7.9 nM; with MCF7, over 10 µM.
`O=C(NC(Cc1cc(=O)[nH]c2ccccc12)C(=O)O)c1ccc(Cl)cc1` (centres undefined) [REBAMIPIDE]: in data set [4], the solubility was found to be 7.6 µg/mL (≈ 20.5 µM).
Turning to `Cc1c(COc2cc(OCc3cccc(C#N)c3)c(CN[C@H](CO)C(=O)O)cc2Cl)cccc1-c1ccncc1`, in data set [2], the IC50 is over 100 nM.
The same measure, in the same setting: to `Cc1c(COc2cc(OCc3cccc(C#N)c3)c(CN3CC[C@H](O)C3)cc2Cl)cccc1-c1ccc2c(c1)OCCO2` belongs 27.5 nM; to `Cc1c(COc2cc(OCc3cccc(C#N)c3)c(CN3CCCC[C@@H]3C(=O)O)cc2Cl)cccc1-c1ccncc1`, over 100 nM.
As for `Cc1c(COc2cc(OCc3cccc(C#N)c3)c(CN[C@H](C(=O)O)[C@H](C)O)cc2Cl)cccc1-c1ccccc1`, in data set [2], the IC50 came out at 14.1 nM.
Consider `Cc1c(COc2cc(OCc3cccc(C#N)c3)c(CN3C[C@@H](O)C[C@@H]3CO)cc2Cl)cccc1-c1ccc2c(c1)OCCO2`, for which the IC50 in the data set on A549 was determined as 4.6 µM; in the data set on B16-F10, 2400 nM; in data set [2], 11.1 nM; in the data set with MCF7, 6.6 µM.
